We go through four compounds from patent US20040265252A1, “Compounds stimulating and inhibiting melanin formation, and methods for screening these compounds” (New York University, priority 2003, published 2004).

Assay [1] addresses T1, tyrosinase (Mus musculus, UniProt P11344).
T1 construct: tyrosinase assay on cell lysates derived from whole cells; endogenous in cells; host or cells: melanocytes
T1 sequence (P11344 19-533): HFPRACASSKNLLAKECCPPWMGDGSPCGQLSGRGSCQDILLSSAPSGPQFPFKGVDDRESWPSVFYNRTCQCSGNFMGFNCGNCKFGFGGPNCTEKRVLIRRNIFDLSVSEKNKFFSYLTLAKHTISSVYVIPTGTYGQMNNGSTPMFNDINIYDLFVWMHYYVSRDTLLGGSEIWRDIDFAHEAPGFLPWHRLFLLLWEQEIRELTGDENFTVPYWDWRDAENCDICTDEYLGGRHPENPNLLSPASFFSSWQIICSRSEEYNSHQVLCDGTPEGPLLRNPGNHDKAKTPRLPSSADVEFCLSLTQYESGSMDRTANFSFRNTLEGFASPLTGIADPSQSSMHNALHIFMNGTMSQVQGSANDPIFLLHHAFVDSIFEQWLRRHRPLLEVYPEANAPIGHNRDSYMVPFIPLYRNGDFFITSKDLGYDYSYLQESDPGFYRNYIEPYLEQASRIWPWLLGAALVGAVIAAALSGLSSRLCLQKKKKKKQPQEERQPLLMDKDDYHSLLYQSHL
Kind of assay: Tyrosinase assay on pre-lysed cells. Format: biochemical. The settings on record: pre-lysed cells treated with compound.

The test system of assay [2] is tyrosinase. Kind of assay: Tyrosinase assay on conditioned media. Format: cell-based. The settings on record: conditioned media of treated cells.
A further assay has as its system melan-a melanocytes. Kind of assay: Melanin assay / pigmentation of cultured melanocytes. In kind it is cell-based, mouse. Here is the method:
The numbers above the bars indicate the percent increase in melanin production relative to the untreated control. For this assay, melan-a melanocytes were cultured in DMEM supplements with 10% FCS, 1% L-glutamine, 1% penicillin/streptomycin, and 40 nM TPA. The cultures were maintained at 37° C., 5% CO2. The cells were seeded at 5×10^4 cells per well in 24 well plates and treated for 72 hours. Photographs were taken after 72 hours at 40× magnification. The cells were harvested, centrifuged, and the protein was extracted from the pellet with 1:1 ethanol:ether. The melanin pellets were solubilized in 20% DMSO/2N NaOH. Samples were transferred to a 96-well plate and the optical density was read at 490 nm using a Biorad 550 spectrophotometer.
The cells were rinsed with phosphate buffered saline (PBS) and lysed with an extraction buffer of […] Tris, pH 7.5; 2 mM ethylenediamine tetraacetic acid (EDTA), pH 7.8; 150 mM NaCl; 1% Titron X-100, with protease inhibitor cocktail at 4° C. The cell extracts were then spun at 12,000 rpm for 10 minutes at 4° C. The remaining pellet was assayed for melanin by rinsing twice with ethanol-ether (1:1) and dissolving in 200 microL of 2N NaOH in 20% DMSO at 60° C. A 100 microL aliquot of the resulting solution was then measured for absorbance at […].

The target of assay [3] is T2, mitochondrial F1F0 ATPase (Mus musculus, UniProt P56480+Q03265+Q9CR84).
T2 construct: endogenous in cells; host or cells: Melan-a murine melanocytes
Kind of assay: Affinity chromatography on immobilized PPA (PPA-Affi) with competition, melanocyte extracts. Format: binding. The settings on record: for competition with ATPase binding to PPA affinity matrix: melan-a extracts, competitor 30 minutes at 4° C., antibodies to beta and alpha subunits. Here is the method: Melanocyte extracts were incubated with PPA-Affi in the presence of the compounds shown. After extensive washing, bound proteins were then eluted with SDS-containing buffer and subjected to SDS-PAGE and silver staining. […] The binding of mitochondrial ATPase was inhibited not only by PPA itself but also by oligomycin, a known mitochondrial ATPase inhibitor.
FIG. 5 is another illustration that mitochondrial ATPase is the target of PPA. The experimental protocol were similar to those described above, but rather than silver stain, immunoblotting was conducted with antibodies to the beta and alpha subunits of the mitochondrial ATPase. The primary antibody in A was anti-F1-ATPase beta subunit antibody (1:2500, 1 hour), and the primary antibody in B was anti-ATPase alpha subunit antibody (1:2500, 1 hour). The secondary antibody was anti-mouse Goat IgG (1:2500, 1 hour).
For this experiment, the cell source was Melan-a (murine melanocyte). The reaction volume was 147 microL of protein extract (0.3 mg/mL)+147 microL bead buffer+6 microL competitor (aurovertin or PPA6 or DMSO). The competition took place for 30 minutes at 4° C. with rocking. The bead volume was 40 microL of 50% slurry. The beads were washed with 1 mL bead buffer seven times. Elution was with 40 microL+30 microL Laemmli buffer, heating for 4 minutes at 90° C.
For the gel electrophoresis, the gel was 10% SDS-PAGE gel, 20-well combination. The loading volume was 25 microL (2nd elution). Running was 30V, overnight.
Protein was extracted from cells by incubation with extraction buffer (1 mM CaCl2, 150 mM NaCL; 10 mM Tris, pH 7.4; 1% Triton X-100, 1 mM PMSF plus protease inhibitor cocktail (Roche, NJ, USA) for five minutes on ice. Crude lysate was centrifuged at 13,000 rpm for ten minutes. The protein concentration of the supernatant was measured by the Bradford assay (Bio-Rad, CA) and adjusted to a final concentration of 1 microg/microL prior to affinity chromatography. […]

Assay [4] has as its target T3, mitochondrial ATPase (beta subunit, OSCP) (Homo sapiens, UniProt P05496+P06576+P48047).
T3 construct: Using human melanoma cell source SK Mel 19, the reaction volume was 147 microL of protein extract; endogenous in cells; host or cells: SK Mel19 human melanoma cells
Kind of assay: PPA-Affi affinity binding and competition, SK Mel19 extracts. The settings on record: SK Mel19 protein extract. Here is the method:
Using human melanoma cell source SK Mel 19, the reaction volume was 147 microL of protein extract (1.0 mg/mL)+147 microL bead buffer+6 microL competitor (oligomycin) or S+DMSO. Competition was effected for 30 minutes at 4° C. with rocking. The bead volume was 40 microL of 50% slurry. Washing was five times with 1 mL bead buffer, and elution was with 40 microL Laemmli buffer, with heating for 4 minutes at 90° C. Gel electrophoresis was with 10% SDS-PAGE gel, 20 well combination. Loading volume was 35 microL, and running was 30V, overnight.
Using human melanoma cell source SK Mel 19, the reaction volume was 99 microL of protein extract (1.0 mg/mL)+99 microL bead buffer+2 microL competitor (oligomycin) or DMSO. Incubation was effected for 30 minutes at 4° C. with rocking. The bead volume was 40 microL of 50% slurry. Washing was five times with 1 mL bead buffer, and elution was with 40 microL Laemmli buffer, with heating for 4 minutes at 90° C. Gel electrophoresis was with 10% SDS-PAGE gel, 20 well combination. Loading volume was 35 microL, and running was 100V for one hour.

With `CC(C)Cn1c(=O)n(C)c(=O)c2[nH]cnc21` [IBMX, 3-Isobutyl-1-methylxanthine], the tyrosinase activity entry at tyrosinase [1] is “only a marginal change”. For the same compound, the secreted tyrosinase activity result with tyrosinase [2] is on record as “large increase in secreted enzyme activity”.

Take `CC[C@H]1/C=C/C=C/C[C@@H](C)[C@H](O)[C@@](C)(O)C(=O)[C@@H](C)[C@H](O)[C@@H](C)C(=O)[C@@H](C)[C@H](O)[C@@H](C)/C=C/C(=O)O[C@@H]2[C@H](C)[C@H](CC1)O[C@]1(CC[C@H](C)[C@H](C[C@@H](C)O)O1)[C@H]2C` [oligomycin, Oligomycin]: the “pigmentation (melanin production)” value in the assay with melan-a melanocytes was “promote pigmentation”. For the same compound, the “competition with ATPase binding to PPA affinity matrix” value in assay [3] is on record as “competed with ATPase binding”. For the same compound, the “inhibition of binding of mitochondrial ATPase to PPA-Affi” value in assay [3] (melanocyte extracts, SDS-PAGE and silver staining) was “inhibited”. The “elution of beta subunit and OSCP bound to PPA-Affi” value in assay [4] is listed as “eluted by oligomycin”.

Turning to `CC[C@H]1O[C@]2(C)[C@H](OC(C)=O)[C@@]1(C)O[C@@H](/C=C/C=C/C=C/c1oc(=O)cc(OC)c1C)[C@@H]2O` [aurovertin, aurovertin B], in the assay on melan-a melanocytes, the “pigmentation (melanin production)” value is recorded as “promote pigmentation”. The “competition with ATPase binding to PPA affinity matrix” value in assay [3] is “do not compete”.

Take `NC(=S)Nc1ccccc1` [PTU, phenylthiourea]: on tyrosinase [1], the tyrosinase activity result is given as “significant decrease in tyrosinase activity”.
